Here are results for two molecules from EP4772500A1, “NOVEL ISOXAZOLE COMPOUND AS TM4SF5-SPECIFIC INHIBITOR AND USE THEREOF” (Seoul National University R&DB Foundation, priority 2023, dated 2025).

This series deals with liver cancer patient-derived cancer fragments (HCC cube) confirmed to express TM4SF5. Nature of the series: TM4SF5-expressing HCC-PDX (patient-derived tissue xenograft) model. As to conditions: for body weight: 5 mg/kg IP twice a week (FIG. 21c); for tumor volume: vs vehicle (FIG. 21c); for PD-L1 expression / SLAMF7 staining / expression of TM4SF5: immunohistochemistry (FIG. 21e); for expressions of Ki67, AFP, F4/80, CCL2 and CCL5, and laminin γ2: immunohistochemistry (FIG. 21d); for cancer formation: immunohistochemistry or H&E staining (FIG. 21d). Type of series: in vivo, NOD/SCID mice. How it is done:
The experiment was conducted by obtaining patient-derived liver cancer segments (P0; HCC cube, 1 mm^3) confirmed to express TM4SF5 from Seoul National University Hospital, which passed the normal IRB approval process (H-2102-059-1195). The hair from the right thigh to the flank of 6-week-old male NOD/SCID mice was removed, and the mice were anesthetized by inhalation with […] isoflurane. Thereafter, a cancer segment was implanted into the right […] of the mice. When the cancer segments were engrafted and grew beyond a certain size at 4 to 5 weeks after implanting the tissue, the animals were sacrificed to obtain cancer segments (P1). The cancer segments were cut into a size of 1 mm^3 and placed in cryotubes with Recovery-Cell Culture Freezing Medium (Gibco) and stored in a […] liquid nitrogen tank. After obtaining P2 and P3 cancer segments in the same manner as above, one P3 cancer segment (1 mm^3) was implanted per 6-week-old male NOD/SCID mouse to establish the HCC-PDX mouse model used in this experiment. From the 8th day after implanting the cancer segments, vehicle, drug ST-5-001, or ST-5-002 was intraperitoneally injected at 5 mg/kg twice a week for a total of 6 times. On the 28th day after implanting the cancer tissue, the animals were sacrificed, and liver cancer tissues were obtained and used for analysis.
(a-d) A TM4SF5-expressing HCC-PDX model was established by implanting liver cancer patient-derived cancer fragments (HCC cube, 1 mm^3), confirmed to express TM4SF5, into the right thigh of 6-week-old male NOD/SCID mice (n=8) deficient in T, B, and NK immune cells. Starting from the 8th day after the tissue implantation, vehicle, drug ST-5-001, or ST-5-002 was intraperitoneally injected at 5 mg/kg twice a week on the indicated dates (a). After 6 injections, the animals were sacrificed on the 28th day after the cancer tissue implantation, liver tissues were obtained, and images of the livers were taken (b). From the 8th day after the implantation, body weight and tumor volume were measured and recorded on each drug injection day (c). Meanwhile, for a portion of the liver tissues, the expression level, distribution, and localization of each factor, as well as the degree of damage to the liver cancer tissue, were confirmed through immunohistochemistry or H&E staining for the given protein factors (d).
On the technique in general: Xenograft models place foreign cells or tissue in a host animal.

Regarding `CC(=O)Nc1ccc(-c2cc(-c3ccc(O)cc3)no2)cc1` [ST-5-001, N-(4-(3-(4-hydroxyphenyl)isoxazole-5-yl)phenyl)acetamide], the body weight entry was “not affected”, the PD-L1 expression result is “decrease”, the SLAMF7 staining result is on record as “infiltrating into the cancer site” and the “expression of TM4SF5” value is given as “not significantly different”. Also, the “expressions of Ki67, AFP, F4/80, CCL2 and CCL5, and laminin γ2” value is “significantly inhibited and lowered”; the cancer formation entry was “inhibited”. In addition, the tumor volume result (5 mg/kg IP twice a week) is given as “significantly reduced”.
`Cc1ccc(C(=O)Nc2ccc(-c3cc(-c4ccc(O)cc4)no3)cc2)cc1` [ST-5-002, N-(4-(3-(4-hydroxyphenyl)isoxazole-5-yl)phenyl)-4-methylbenzamide]: the body weight result is “not affected”, the PD-L1 expression entry is given as “decrease”, the SLAMF7 staining result was “infiltrating into the cancer site” and the “expression of TM4SF5” value is listed as “not significantly different”. Moreover, the “expressions of Ki67, AFP, F4/80, CCL2 and CCL5, and laminin γ2” value is “significantly inhibited and lowered”; the cancer formation result is recorded as “inhibited”. In addition, the “inhibitory effect on liver cancer formation” value (5 mg/kg IP twice a week, 6 times, images (FIG. 21b)) was “distinct”. The tumor volume entry (5 mg/kg IP twice a week) is listed as “significantly reduced”.
